Results: patent US20120022048A1, “Anti-proliferative substituted pyrazolo[3,4-d]pyrimidines derivatives (SPP) to inhibit immune activation, virus replication and tumor growth” (priority 2010, published 2012)

Legend:
Type in all cases: cell-based
[1] = tested on: primary human CD4 T-lymphocytes; test: Cell hyperproliferation in primary T cells (CFSE staining, mitotic index); details: for mitotic index %: % of not treated control (100%), day 10, HU 100 μM; for mitotic index % / anti-proliferative activity (in words): SPPs 10 μM, Imatinib 10 μM; for anti-proliferative activity (in words): compared with HU 100 μM, HU+ddI or untreated control; for Anti-proliferative capacity: class symbol, Table 6
Procedure: We built up an experimental model using primary T cells to study the activity of the compounds on induced hyperproliferation of cells, which is a characteristic of both chronic viral diseases and cancer including HIV and leukemia.
(§1) Unstimulated (quiescent/resting, day 0 to 5) primary human CD4 T-lymphocytes were obtained by magnetic bead separation from healthy, normal donors. After five days in culture, cells were activated with PHA (5 μg/ml) to induce hyperproliferation then, at day 7, IL-2 (20 U/ml) was added (stimulated, day 6 to 10). All available compounds were tested at a concentration of 10 μM. […] At day 10, cells were harvested. Proliferation of T cells, cultured as described above, was studied by staining the cells with carboxyfluorescein diacetate-succinimidyl ester (CFSE) at day 0 (immediately after infection). For data analysis, the mitotic index (M) was used, calculating the sum of mitotic events at each proliferation cycle. To extract a relative number, M was normalized to the total number of cells acquired using the equation M=Σ[(Xn(T)−Xn(T)/2^n)], that gives the number of mitotic events from the experimentally obtained values of the proportion of T cells under each division peak n (Xn) and the total T cells (T). To study the effect of the compounds on apoptosis T cells were cultured as described above and at day 10 cells were stained with Annexin V and 7-AAD, in order to determine the percentage of total apoptotic events.

HIV-1 NL 4.3 [2] = test: HIV-1 replication in quiescent CD4 T cells (p24 Ag ELISA); details: for HIV quiescent cells (percentage p24 compared to the untreated control): quiescent CD4 T cells, day 10, HU 100 μM, HU 100 μM+ddI 2 μM; for HIV quiescent cells (percentage p24 compared to the untreated control) / anti-HIV activity in quiescent cells (in words): SPPs 10 μM; for anti-HIV activity in quiescent cells (in words): compared with HU 100 μM, HU+ddI or untreated control; for Antiviral activity in quiescent cells: class symbol, Table 6
Procedure: Unstimulated (quiescent/resting, day 0 to 5) human CD4 T-lymphocytes, obtained by magnetic bead separation from healthy, normal donors, were infected with HIV-1 NL 4.3. After five days in culture, cells were stimulated with PHA (5 μg/ml) to induce proliferation, and then, at day 7, IL-2 (20 U/ml) was added (stimulated, day 6 to 10). All available compounds were tested at a concentration of 10 μM. HU 100 μM and HU 100 μM+ddI 2 μM were also employed as comparators and the negative control was left untreated. At day 10, cells and supernatants were harvested and HIV-1 p24 Ag was measured by ELISA. HIV replication was expressed as percentage p24 compared to the untreated control.

HIV-1 NL 4.3 [3] = test: HIV-1 replication in activated T cells (PBMC, p24 Ag ELISA); details: for anti-HIV activity in activated T cells (in words): SPPs 10 μM, compared with HU 100 μM, HU+ddI or untreated control; for HIV activated cells (% p24 compared to not treated control): activated T cells, 7 days, SPPs and Imatinib 10 μM, HU 100 μM, ddI 2 μM; for Antiviral activity in activated cells: class symbol, Table 6
Procedure: The experimental setup described below allows us to detect direct antiviral activity of a compound.
Human PBMC, obtained from healthy, normal donors, were stimulated for two days with PHA 5 μg/ml. Then cells were infected with HIV-1 NL 4.3, IL-2 was added (20 U/ml), cells were plated (10^5 cells per well in 200 μl) and drug treatment started. […] The control was left untreated. After 7 days of incubation at 37° C. supernatants were harvested and HIV-1 p24 Ag was measured by ELISA.

[4] = tested on: primary human CD4 T-lymphocytes; test: Apoptosis in primary CD4 T cells (Annexin V and 7-AAD staining); details: SPPs 10 μM; for apoptotic effect (in words): compared with HU 100 μM, HU+ddI or untreated control; for apoptosis %: total apoptotic events compared to untreated control, day 10, Imatinib 10 μM, HU 100 μM, ddI 2 μM
Procedure: as §1
We determined the capacity of the compounds to affect the percentages of apoptotic events after 10 days of treatment in primary CD4 T cells.

Structure (SMILES)	mitotic index % [1] [%]	anti-proliferative activity (in words) [1]	HIV quiescent cells (percentage p24 compared to the untreated control) (HIV-1 NL 4.3 [2]) [%]	anti-HIV activity in activated T cells (in words) (HIV-1 NL 4.3 [3])	HIV activated cells (% p24 compared to not treated control) (HIV-1 NL 4.3 [3]) [%]	Anti-proliferative capacity [1]	apoptotic effect (in words) [4]	apoptosis % [4] [%]	anti-HIV activity in quiescent cells (in words) (HIV-1 NL 4.3 [2])	Antiviral activity in quiescent cells (HIV-1 NL 4.3 [2])	Antiviral activity in activated cells (HIV-1 NL 4.3 [3])	inhibition at 10 µM ([1]; Homo sapiens, T-lymphocyte, read-out: decrease/inhibition of cell proliferation compared to not treated control) [%]
CCCCNc1ncnc2c1cnn2CC(Br)c1ccccc1 (stereo not shown) [VS1-006]	54.0	not effective	17.8 ± 2.5	not effective	100.5 ± 26.4	–	–	–	–	–	–	–
CCSc1nc(Nc2cccc(Cl)c2)c2cnn(CC(Cl)c3ccccc3)c2n1 (stereo not shown) [VS1-027]	2.4 ± 1.5	good anti-proliferative capacity (superior to 100 μM HU)	2.7 ± 1.6	good anti-HIV activity	12.0 ± 9.5	+++ (excellent (+++, greater than 70% activity))	no more apoptotic than HU	90.1 ± 33.8	good anti-HIV activity	+++ (excellent (+++, greater than 70% activity))	+++ (excellent (+++, greater than 70% activity))	–
BrC(Cn1ncc2c(N3CCCCCC3)ncnc21)c1ccccc1 (stereo not shown) [VS1-018]	42.4 ± 21.8	poor activity	11.5 ± 3.2	poor activity	93.6 ± 28.3	–	proapoptotic	176.0 ± 22.5	–	–	–	–
C(=Cn1ncc2c(N3CCOCC3)ncnc21)c1ccccc1 [VS1-009]	88.4 ± 19.8	very little activity	71.8 ± 42.9	very little activity	44.8 ± 14.9	–	–	114.2 ± 21.3	–	–	–	–
CCCNc1nc(SCCN2CCOCC2)nc2c1cnn2CC(Cl)c1ccccc1 (stereo not shown) [VS1-025]	61.6 ± 12.7	poor activity	23.6 ± 14.5	poor activity	74.2 ± 31.7	–	–	139.3 ± 20.8	–	–	–	–
Cc1ccc(NC(=O)c2ccc(CN3CCN(C)CC3)cc2)cc1Nc1nccc(-c2cccnc2)n1 [Imatinib, reference compound]	–	–	–	comparable antiviral capacity	–	–	no significant increases	–	–	–	–	62
CSc1nc(NCc2ccc(F)cc2)c2cnn(CC(Cl)c3ccccc3)c2n1 (stereo not shown) [VS1-017]	34.5 ± 6.7	poor activity	38.7 ± 44.5	poor activity	63.4 ± 31.2	–	–	130.0 ± 19.3	–	–	–	–
CSc1nc(N2CCCCCC2)c2cnn(CC(Cl)c3ccccc3)c2n1 (stereo not shown) [VS1-034]	25.9 ± 12.9	comparable or even greater than HU	22.2 ± 7.0	–	65.0 ± 12.0	–	–	115.1 ± 34.5	–	–	–	–
CCSc1nc(NCc2ccccc2)c2cnn(CC(Cl)c3ccccc3)c2n1 (stereo not shown) [VS1-020]	21.9 ± 13.0	as anti-proliferative or even better than HU	9.2 ± 3.7	effective against HIV	26.3 ± 6.1	–	proapoptotic	174.7 ± 25.9	effective against HIV	–	–	–
CSc1nc(Nc2cccc(Cl)c2)c2cnn(C=Cc3ccccc3)c2n1 [VS1-016]	71.2 ± 5.8	–	23.6 ± 22.1	better anti-HIV activity than HU	21.0 ± 6.3	–	–	88.0 ± 12.7	–	–	–	–
CCSc1nc(NCCc2ccccc2)c2cnn(CC(Cl)c3ccccc3)c2n1 (stereo not shown) [VS1-026]	24.9 ± 16.6	equal to or a little less anti-proliferative than HU	29.3 ± 6.9	–	19.6 ± 12.6	+++ (excellent (+++, greater than 70% activity))	not proapoptotic	135.3 ± 15.7	slightly less potent against HIV	++ (good (++, 50 to 70% activity))	+++ (excellent (+++, greater than 70% activity))	–
CCCCNc1nc(SC)nc2c1cnn2CC(Cl)c1ccccc1 (stereo not shown) [VS1-024]	45.5 ± 10.9	equal to or a little less anti-proliferative than HU	24.3 ± 9.4	–	10.1 ± 7.4	++ (good (++, 50 to 70% activity))	not proapoptotic	126.7 ± 23.9	slightly less potent against HIV	+++ (excellent (+++, greater than 70% activity))	+++ (excellent (+++, greater than 70% activity))	–
CSc1nc(Nc2cccc(Cl)c2)c2cnn(CC(Cl)c3ccc(F)cc3)c2n1 (stereo not shown) [VS1-022]	10.4 ± 11.4	as anti-proliferative or even better than HU	5.4 ± 3.1	effective against HIV	37.1 ± 19.8	–	proapoptotic	178.0 ± 25.7	effective against HIV	–	–	–
CCCCNc1ncnc2c1cnn2CC(Cl)c1ccccc1 (stereo not shown) [VS1-008]	8.1 ± 1.8	good activity against proliferation (even better than HU though 10 times less concentrated)	11.2 ± 7.7	good activity	11.8 ± 5.6	+++ (excellent (+++, greater than 70% activity))	did not induce apoptosis	115.8 ± 39.4	good activity	+++ (excellent (+++, greater than 70% activity))	+++ (excellent (+++, greater than 70% activity))	–
CSc1nc(NCc2ccc(Cl)cc2)c2cnn(CC(Cl)c3ccccc3)c2n1 (stereo not shown) [VS1-035]	33.8 ± 11.0	good anti-proliferative activity, similar to HU	24.0 ± 20.0	–	49.5 ± 8.1	–	proapoptotic activity	161.0 ± 13.2	–	–	–	–
BrC(Cn1ncc2c(NC3CCCCC3)ncnc21)c1ccccc1 (stereo not shown) [VS1-007]	87.0	poor performance	75.7 ± 18.8	no effect on HIV replication	70.6 ± 24.3	–	–	–	–	–	–	–
